Data published in patent publication US20260262643A1, “HERBICIDAL BENZOXAZINES” (FMC CORPORATION, priority 2022, published 2026).

Experiments:
barnyardgrass [1] = assay: Test D flooded paddy test; type: in vivo, Echinochloa crus-galli; conditions: 250 g ai/ha, applied to paddy water, visual rating after 13 to 14 days, scale 0 to 100 (0 no effect, 100 complete control)
In short: (§1)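 At the 2-leaf stage, floodwater 3 cm deep received the test compound; that depth persisted throughout. Plants scored visually 13 to 14 days on, 0 (no effect) to 100 (complete control), dash indicating no result.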

sedge, umbrella = assay: Test D flooded paddy test; type: in vivo, Cyperus difformis; conditions: 250 g ai/ha, applied to paddy water, visual rating after 13 to 14 days, scale 0 to 100 (0 no effect, 100 complete control)
In short: as §1

green foxtail [2] = assay: Test C preemergence; type: in vivo, Setaria viridis; conditions: for Plant response rating, Foxtail, Green: Preemergence
In short: (§2)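 Visual injury score, 0–100 (100 = complete control), taken 10 days after treatment relative to untreated controls. Pre: directed spray onto soil over sown seeds. Post: foliar spray at one- to two-leaf stage, 2–10 cm. Solvent/surfactant formulation; loam–sand soil; greenhouse.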

blackgrass [3] = assay: Test C preemergence; type: in vivo, Alopecurus myosuroides; conditions: Preemergence
In short: as §2

barnyardgrass [4] = assay: Test C postemergence; type: in vivo, Echinochloa crusgalli
In short: as §2

ryegrass, Italian [5] = assay: Test C preemergence; type: in vivo, Lolium multiflorum; conditions: for Plant response rating, Ryegrass, Italian: Preemergence
In short: as §2

kochia [6] = assay: Test C postemergence; type: in vivo, Bassia scoparia; conditions: 10 days
In short: as §2

pigweed, palmer [7] = assay: Test C preemergence; type: in vivo, Amaranthus palmeri; conditions: for Plant response rating, Pigweed, Palmer: Preemergence
In short: as §2

pigweed, palmer [8] = assay: Test C postemergence; type: in vivo, Amaranthus palmeri; conditions: 10 days
In short: as §2

rice = assay: Test D flooded paddy test; type: in vivo, Oryza sativa; conditions: 250 g ai/ha, applied to paddy water, visual rating after 13 to 14 days, scale 0 to 100 (0 no effect, 100 complete control)
In short: as §1

ryegrass, Italian [9] = assay: Test C postemergence; type: in vivo, Lolium multiflorum; conditions: Postemergence, 1000 g ai/ha, 10 days, visual 0 to 100 scale (0 no effect, 100 complete control)
In short: as §2

ducksalad = assay: Test D flooded paddy test; type: in vivo, Heteranthera limosa; conditions: 250 g ai/ha, applied to paddy water, visual rating after 13 to 14 days, scale 0 to 100 (0 no effect, 100 complete control)
In short: as §1

blackgrass [10] = assay: Test C postemergence; type: in vivo, Alopecurus myosuroides; conditions: 10 days
In short: as §2

galium = assay: Test C postemergence; type: in vivo, Galium aparine; conditions: Postemergence, 10 days, visual 0 to 100 scale (0 no effect, 100 complete control)
In short: as §2

horseweed = assay: Test C postemergence; type: in vivo, Erigeron canadensis; conditions: 10 days
In short: as §2

barnyardgrass [11] = assay: Test C preemergence; type: in vivo, Echinochloa crusgalli; conditions: Preemergence
In short: as §2

kochia [12] = assay: Test C preemergence; type: in vivo, Bassia scoparia; conditions: for Plant response rating, Kochia: Preemergence
In short: as §2

green foxtail [13] = assay: Test C postemergence; type: in vivo, Setaria viridis; conditions: 10 days
In short: as §2

ragweed [14] = assay: Test C preemergence; type: in vivo, Ambrosia artemisiifolia; conditions: for Plant response rating, Ragweed: Preemergence
In short: as §2

ragweed [15] = assay: Test C postemergence; type: in vivo, Ambrosia artemisiifolia; conditions: Postemergence, 1000 g ai/ha, 10 days, visual 0 to 100 scale (0 no effect, 100 complete control)
In short: as §2

corn [16] = assay: Test C preemergence; type: in vivo, Zea mays
In short: as §2

soybean = assay: Test C preemergence; type: in vivo, Glycine max
In short: as §2

wheat = assay: Test C preemergence; type: in vivo, Triticum aestivum
In short: as §2

oat, wild [17] = assay: Test C preemergence; type: in vivo, Avena fatua
In short: as §2

oat, wild [18] = assay: Test C postemergence; type: in vivo, Avena fatua; conditions: 500 g ai/ha, postemergence, 10 days, 0 to 100 scale (0 no effect, 100 complete control)
In short: as §2

corn [19] = assay: Test C postemergence; type: in vivo, Zea mays; conditions: 500 g ai/ha, 10 days
In short: as §2

[20] = 1000 g ai/ha, visual rating after 10 days, 0 to 100 scale (0 no effect, 100 complete control)
[21] = Postemergence, 1000 g ai/ha, visual 0 to 100 scale (0 no effect, 100 complete control)
[22] = Preemergence, 125 g ai/ha, 0 to 100 scale, 0 no effect, 100 complete control
[23] = 125 g ai/ha, 0 to 100 scale, 0 no effect, 100 complete control
[24] = 500 g ai/ha, postemergence, 0 to 100 scale (0 no effect, 100 complete control)
[25] = 500 g ai/ha, preemergence, 0 to 100 scale (0 no effect, 100 complete control)
[26] = 500 g ai/ha, visual rating after 10 days, 0 to 100 scale (0 no effect, 100 complete control)
[27] = Postemergence, 500 g ai/ha, visual 0 to 100 scale (0 no effect, 100 complete control)

Cc1cnn(-c2cccc(C(=O)N3C[C@H](C)Oc4c(Cl)cccc43)c2)c1 [Compound 207]
Plant response rating, Barnyardgrass (Flood) (barnyardgrass [1]): 0 | Plant response rating, Sedge, Umbrella (Flood) (sedge, umbrella): 0 | Plant response rating, Foxtail, Green (green foxtail [2]; [20]): 90 | Plant response rating, Blackgrass (blackgrass [3]; [20]): 20 | Plant response rating, Barnyardgrass (barnyardgrass [4]; Postemergence, 1000 g ai/ha, 0 to 100 scale, 0 no effect, 100 complete control): 30 | Plant response rating, Ryegrass, Italian (ryegrass, Italian [5]; [20]): 90 | Plant response rating, Kochia (kochia [6]; [21]): 20 | Plant response rating, Pigweed, Palmer (pigweed, palmer [7]; [20]): 90 | Plant response rating, Pigweed, Palmer (pigweed, palmer [8]; [21]): 90 | Plant response rating, Rice (Flood) (rice): 0 | Plant response rating, Ryegrass, Italian (ryegrass, Italian [9]): 70 | Plant response rating, Ducksalad (Flood) (ducksalad): 0 | Plant response rating, Blackgrass (blackgrass [10]; [21]): 10 | Plant response rating, Galium (galium; 1000 g ai/ha): 10 | Plant response rating, Horseweed (horseweed; [21]): 10 | Plant response rating, Barnyardgrass (barnyardgrass [11]; [20]): 90 | Plant response rating, Kochia (kochia [12]; [20]): 30 | Plant response rating, Foxtail, Green (green foxtail [13]; [21]): 10 | Plant response rating, Ragweed (ragweed [14]; [20]): 0 | Plant response rating, Ragweed (ragweed [15]): 10

CCOC[C@H]1CN(C(=O)c2cc(-n3cnc(C(C)C)n3)cc3c2OCO3)c2cccc(Cl)c2O1 [Compound 400]
Plant response rating, Corn (corn [16]; [22]): 0 | Plant response rating, Barnyardgrass (Flood) (barnyardgrass [1]): 15 | Plant response rating, Soybean (soybean; [22]): 20 | Plant response rating, Sedge, Umbrella (Flood) (sedge, umbrella): 40 | Plant response rating, Wheat (wheat; [22]): 0 | Plant response rating, Foxtail, Green (green foxtail [2]; [23]): 70 | Plant response rating, Blackgrass (blackgrass [3]; [23]): 0 | Plant response rating, Barnyardgrass (barnyardgrass [4]; 500 g ai/ha, postemergence, 10 days, 0 to 100 scale (0 no effect, 100 complete control)): 50 | Plant response rating, Ryegrass, Italian (ryegrass, Italian [5]; [23]): 60 | Plant response rating, Kochia (kochia [6]; [24]): 90 | Plant response rating, Pigweed, Palmer (pigweed, palmer [7]; [23]): 100 | Plant response rating, Oat, Wild (oat, wild [17]; [22]): 0 | Plant response rating, Pigweed, Palmer (pigweed, palmer [8]; [24]): 100 | Plant response rating, Rice (Flood) (rice): 0 | Plant response rating, Ducksalad (Flood) (ducksalad): 45 | Plant response rating, Blackgrass (blackgrass [10]; [24]): 70 | Plant response rating, Horseweed (horseweed; [24]): 20 | Plant response rating, Barnyardgrass (barnyardgrass [11]; [23]): 50 | Plant response rating, Kochia (kochia [12]; [23]): 50 | Plant response rating, Foxtail, Green (green foxtail [13]; [24]): 40 | Plant response rating, Oat, Wild (oat, wild [18]): 20 | Plant response rating, Ragweed (ragweed [14]; [23]): 30 | Plant response rating, Corn (corn [19]; postemergence, 0 to 100 scale (0 no effect, 100 complete control)): 50

CC(C)c1ncn(-c2cc(O)c(O)c(C(=O)N3C[C@H](C)Oc4c(Cl)cccc43)c2)n1 [Compound 272, [(2S)-8-chloro-2-methyl-2,3-dihydro-1,4-benzoxazin-4-yl]-[2,3-dihydroxy-5-(3-isopropyl-1,2,4-triazol-1-yl)phenyl]methanone]
Corn plant response rating (corn [16]; [25]): 0 | Plant response rating, Barnyardgrass (Flood) (barnyardgrass [1]): 0 | Soybean plant response rating (soybean; [25]): 0 | Plant response rating, Sedge, Umbrella (Flood) (sedge, umbrella): 0 | Wheat plant response rating (wheat; [25]): 0 | Foxtail, Green plant response rating (green foxtail [2]; [25]): 0 | Plant response rating, Blackgrass (blackgrass [3]; [26]): 0 | Plant response rating, Barnyardgrass (barnyardgrass [4]; Postemergence, 500 g ai/ha, 10 days, visual 0 to 100 scale (0 no effect, 100 complete control)): 0 | Ryegrass, Italian plant response rating (ryegrass, Italian [5]; [25]): 0 | Pigweed, Palmer plant response rating (pigweed, palmer [7]; [25]): 90 | Oat, Wild plant response rating (oat, wild [17]; [25]): 0 | Plant response rating, Rice (Flood) (rice): 0 | Plant response rating, Ducksalad (Flood) (ducksalad): 0 | pest or weed control at 500 g/ha (blackgrass [10]; Alopecurus myosuroides, post-emergence, 240 h, Postemergence, 500 g ai/ha, visual 0 to 100 scale (0 no effect, 100 complete control), read-out: Plant response rating, Blackgrass): 0% | Plant response rating, Galium (galium; 500 g ai/ha): 0 | Plant response rating, Horseweed (horseweed; [27]): 10 | Plant response rating, Barnyardgrass (barnyardgrass [11]; [26]): 0 | Kochia plant response rating (kochia [12]; [25]): 0 | Plant response rating, Foxtail, Green (green foxtail [13]; [27]): 0 | Ragweed plant response rating (ragweed [14]; [25]): 30 | Corn plant response rating (crop injury, 0 = no effect, 100 = complete kill) at 500 g/ha (corn [19]; Zea mays, post-emergence, 240 h, Postemergence, visual 0 to 100 scale (0 no effect, 100 complete control)): 0%
